Measured values taken from patent publication US9217016B2, “Hyaluronic acid-binding synthetic peptidoglycans, preparation, and methods of use” (SYMIC IP, LLC, priority 2011, dated 2015).
Values belong to the substance of their own block, whether it stands above or below them. Ends that are not written are not given here.

Assays:
[1] = test system: Matrix metalloprotease-I (MMP-I); assay: Collagen protection: degradation of collagen type I in ECM replicates by MMP-I (hydroxyproline assay); assay type: biochemical; conditions: CI + HA + treatment, 50 hr at 37° C.
Method: ECM-based constructs containing collagen alone, collagen+HA+CS, or collagen+HA+10.5GAH−CS were created in 8-well chambered slides as described previously. The final sample volume was 200 μL consisting of 0.8 mg of collagen type I. Matrix metalloprotease-I (MMP-I, R&D Systems, Minneapolis, Minn.) at a concentration of 0.133 mg/mL, was activated following the protocol detailed in the manufacturer's instructions. Briefly, MMP-1, already dissolved in manufacturer's buffer (50 mM Tris, 10 mM CaCl2, 150 mM NaCl, 0.05% Brij-35, pH 7.5), was combined with an equal volume of 25 mM APMA (Sigma) in DMSO at 37° C. for 2 hrs to activate the enzyme. Upon activation, the MMP-1 solution was diluted two fold in water and was added to the sample as a 100 μL supernatant. […] Following hydrolysis, the amount of hydroxyproline (hyp) was analyzed according to the protocol developed by Reddy, et al. (Clin Biochem, 1996, 29: 225-9). […] After the development of the chlorophore, the samples were read on a spectrophotometer at a wavelength of 550 nm. Absorbance readings were compared to those obtained from known concentrations of collagen to determine the amount of collagen remaining in each sample.
Each replicate sample was constructed with 0.8 mg of CI, and after degradation, the remaining CI amount was determined by the protocol developed by Reddy et al. and converting that to CI amount by a set of CI standards. […]

[2] = test system: Hyaluronidase (Type II from Sheep Testes); assay: Protection of hyaluronic acid from hyaluronidase degradation (dynamic viscosity); assay type: biochemical; conditions: 0.5 wt % HA, 75:1 treatment to HA molar ratio
Method: Dynamic viscosity values of HA solutions were determined using the AR-G2. High molecular weight HA solutions have a large viscosity due to the extensive chain entanglement caused by the long chain length. Hyaluronidase (Type II from Sheep Testes, Sigma) cleaves the HA chain, creating shorter chains with less entanglement. The shorter HA chains will have a measurably lower viscosity. HA solutions were incubated with 100 units/mL hyaluronidase. Dynamic viscosities were determined using a time sweep with constant angular frequency and oscillatory stress initially and at 2 and 4-hour timepoints. Samples (at 0.5 wt % HA) consisted of HA, HA+CS, and HA+10.5GAH−CS. The treatment values were added at a 75:1 treatment to HA molar ratio. The percent degradation was calculated for each measurement by dividing the initial viscosity from the difference of the measured viscosity minus the initial viscosity.
Viscosities of each treatment without hyaluronidase (TES Buffer replaced the hyaluronidase volume) were initially measured and served as the baseline for the percent degradation calculations. The 0 hr timepoint involved the addition of the hyaluronidase, mixing of the solution, pipetting onto the rheometer, and the beginning equilibration operation of the machine. Therefore, the 0 hr timepoint occurred approximately two minutes after the addition of hyaluronidase. […]

[3] = Diffusion of peptidoglycans through cartilage matrix (avidin-biotin stain); conditions: aggrecan-depleted bovine cartilage explant, 10 μM diffused through articular surface for one hour
Method: Cartilage explants were obtained from the load bearing region of three month old bovine knee joints. Native aggrecan was removed from harvested cartilage explants leaving a matrix consisting primarily of type II collagen and residual GAG. This was achieved by treating explants with 0.5% (w/v) trypsin in HBSS for 3 hours at 37° C. (FIG. 13). After trypsin treatment explants were washed three times in HBSS and incubated with 20% FBS to inactivate residual trypsin activity. Peptidoglycan was dissolved in distilled water at 10 μM concentration and diffused through the articular surface of cartilage explants by placing 10 μL of the solution on the surface every ten minutes for one hour at room temperature (FIG. 14). Normal cartilage and aggrecan depleted cartilage were treated with 1×PBS as positive and negative controls respectively. After diffusion, explants were washed three times with 1×PBS and stored at −20° C. until further testing. Diffusion of peptidoglycan was confirmed by staining a midsagittal section of the tissue with streptavidin-horseradish peroxidase stain. The streptavidin stain binds to the biotin labeled molecule and is depicted as a brown color (FIGS. 15 and 16).

collagen type II = assay: Real-time PCR, collagen type II expression; assay type: cell-based, bovine
Method: (§1) Following the cell culture study, constructs were stored in RNAlater solution (Ambion) at 4° C. for less than one week. Total mRNA was extracted using Nucleospin RNA II (Clontech) according to manufacturer's protocols. Extracted mRNA from all samples was quantified using Nanodrop 2000 spectrophotometer (Thermo Scientific) and reverse transcribed into cDNA using High Capacity cDNA Reverse Transcriptase Kit (Applied Biosystems). Real-time PCR was performed using Taqman Gene Expression Assays (Applied Biosystems) with the following primers: GAPDH (Bt03210913_gl), aggrecan (Bt03212186_ml) and collagen type II (Bt03251861_ml). 60 ng of cDNA template was prepared per 20 μL reaction for the two genes of interest and the endogenous gene. Real-time PCR analysis was carried out using a Taqman PCR Master Mix and 7500 Real-Time PCR System (Applied Biosystems). Data reported was normalized to GAPDH gene expression.

[4] = test system: Sprague-Dawley rat knee joints; assay: Animal model of osteoarthritis (surgical induction), microCT; assay type: in vivo, Sprague-Dawley rats; conditions: six and eight weeks after OA induction surgery; 10 μl of a 1 μm mAGC weekly starting at week 4
Method: Sprague-Dawley rats (250-300 g) were used for surgery. The patellar tendon, the anterior and posterior cruciate ligaments and the medial, lateral collateral ligaments were transected. The medial and lateral meniscuses were totally menisectomized. The knee joint capsule was repaired with an absorbable suture and the skin was closed with a 4-0 monofilament nylon. Starting at week 4, 10 μl of a 1 μm mAGC was administered weekly.
The extent of inflammation was indicated by the MMP-13 probe (FIG. 18) in Sprague-Dawley rats treated with and without peptidoglycan at four, six and eight weeks post surgery (FIG. 19). […] Injured knees 6 weeks and 8 weeks following OA induction, (FIG. 21, Panels A and D, respectively), injured knees following peptidoglycan treatment (FIG. 21, Panels B and E, respectively), and Normal knee (FIG. 21, Panel C), are shown.

aggrecan = assay: Real-time PCR, aggrecan expression; assay type: cell-based, bovine; conditions: chondrocytes in collagen scaffolds with versus without mAGC
Method: as §1

[5] = test system: bovine chondrocytes in collagen scaffolds; assay: In vitro inflammation model: CS release into media (DMMB assay); assay type: cell-based; conditions: cumulative over eight-day culture, with and without 20 ng/mL IL-1β, versus scaffolds with CS
Method: (§2) Collagen scaffolds seeded with chondrocytes were stimulated with IL-1β and assessed for degradation products.
(§3) Primary chondrocytes were harvested from three-month-old bovine knee joints obtained from an abattoir within 24 hours of slaughter (Dutch Valley Veal). Cartilage slices, 150-200 μm thick, were shaved from the lateral femoral condyle and washed three times in serum-free DMEM/F-12 medium (50 μg/mL ascorbic acid 2-phosphate, 100 μg/mL sodium pyruvate, 0.1% bovine serum albumin, 100 units/mL penicillin, 100 μg/mL streptomycin and 25 mM HEPES) prior to digestion with 3% fetal bovine serum (FBS) and 0.2% collagenase-P (Roche Pharmaceuticals) at 37° C. for six hours. Released chondrocytes were filtered through 70 μm cell strainer and centrifuged at 1000 rpm three times for five minutes each in medium listed above supplemented with 10% FBS. The cell pellet was resuspended in 10% FBS supplemented media and plated on 10 cm dishes at 10,000 cells/mL in a 37° C., 5% CO2 humidified incubator until confluent. […]
(§4) GAG degradation was monitored by measuring CS released in cell culture media using the dimethylmethylene blue (DMMB) dye assay and computed with a chondroitin-6-sulfate standard curve. Similarly, type I collagen degradation in cell culture media was monitored using the Sircol Collagen Assay using manufacturer specified protocols (Bio-Color). […]

[6] = test system: bovine chondrocytes in collagen scaffolds; assay: In vitro inflammation model: collagen breakdown (Sircol assay); assay type: cell-based; conditions: cumulative over eight-day culture, with and without 20 ng/mL IL-1β, versus scaffolds with CS
Method: as §2, §3, §4

- percent degradation of HA ([2]; 0 hr timepoint (about 2 min after hyaluronidase)): almost complete degradation
- percent degradation of HA ([2]; 2 hr timepoint): above 90%
Substance: chondroitin sulfate [CS]
- percent degradation of CI [1]: 74.7%

Substance: mAG(II)C: Collagen type II binding peptidoglycan with peptide WYRGRLGC (SEQ ID NO: 36) (also: attached to glycosaminoglycan backbone)
- depth of penetration into tissue [3]: approximately 200 um

Substance: mAGC: HA binding peptidoglycan (aggrecan mimic): GAHWQFNALTVRGGGC (SEQ ID NO: 35) peptides attached to chondroitin sulfate; peptide number not stated (also: attached to chondroitin sulfate)
- level of collagen type II expression (normalized to GAPDH) (collagen type II; aligned collagen scaffolds): higher in scaffolds prepared with mAGC
- level of collagen type II expression (normalized to GAPDH) (collagen type II; unaligned scaffolds): higher in scaffolds prepared without mAGC
- cartilage by MicroCT [4]: re-growth of new cartilage
- aggrecan expression (normalized to GAPDH) (aggrecan): lower aggrecan expression
- amount of CS released into cell culture media [5]: significantly decreased
- amount of collagen released into cell culture media [6]: significantly decreased
